Values belong to the compound of their own block, whether it stands above or below them. Active and inactive are the calls of the source.
How the values were obtained:
[1] = molecular target: Glyceraldehyde-3-phosphate dehydrogenase (Homo sapiens, UniProt P04406)
[2] = molecular target: Tyrosine-protein phosphatase non-receptor type 12 (Homo sapiens, UniProt Q05209); assay: SAR Selectivity Analysis of small molecule inhibitors of PEST using pCAP in a fluorescence assay. [Related pubchem assays (depositor defined):AID1779, AID1784, AID2135]; type: functional
Tyrosine-protein phosphatase non-receptor type 12, sequence (Q05209 whole entry): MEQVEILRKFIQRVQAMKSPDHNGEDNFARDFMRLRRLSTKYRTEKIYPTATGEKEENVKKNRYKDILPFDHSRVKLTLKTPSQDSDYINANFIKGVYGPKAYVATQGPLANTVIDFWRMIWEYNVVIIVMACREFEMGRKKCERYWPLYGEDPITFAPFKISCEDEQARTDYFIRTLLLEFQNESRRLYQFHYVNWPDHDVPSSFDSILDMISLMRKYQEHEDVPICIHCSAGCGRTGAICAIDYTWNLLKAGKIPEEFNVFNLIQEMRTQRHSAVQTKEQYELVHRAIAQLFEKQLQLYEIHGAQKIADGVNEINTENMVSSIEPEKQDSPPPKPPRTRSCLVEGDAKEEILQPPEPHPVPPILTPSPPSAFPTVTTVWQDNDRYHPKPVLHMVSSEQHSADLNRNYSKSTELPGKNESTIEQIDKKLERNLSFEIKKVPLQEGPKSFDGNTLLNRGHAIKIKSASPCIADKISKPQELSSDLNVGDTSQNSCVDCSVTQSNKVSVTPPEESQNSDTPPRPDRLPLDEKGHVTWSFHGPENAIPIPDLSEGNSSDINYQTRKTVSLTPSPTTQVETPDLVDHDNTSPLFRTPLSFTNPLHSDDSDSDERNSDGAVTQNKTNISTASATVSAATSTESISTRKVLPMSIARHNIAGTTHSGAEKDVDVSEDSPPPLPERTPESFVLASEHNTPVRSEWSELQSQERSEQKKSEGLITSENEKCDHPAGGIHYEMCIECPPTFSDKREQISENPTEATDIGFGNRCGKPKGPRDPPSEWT

[3] = molecular target: T1, Tyrosine-protein phosphatase non-receptor type 22 (Homo sapiens, UniProt Q9Y2R2); assay: SAR LYP1 Fluorescent Assay using OMFP substrate for In Vitro dose response studies - Set 3. [Related pubchem assays (depositor defined):AID1779, AID1784, AID2140, AID2686]; type: functional
T1 sequence (Q9Y2R2 whole entry): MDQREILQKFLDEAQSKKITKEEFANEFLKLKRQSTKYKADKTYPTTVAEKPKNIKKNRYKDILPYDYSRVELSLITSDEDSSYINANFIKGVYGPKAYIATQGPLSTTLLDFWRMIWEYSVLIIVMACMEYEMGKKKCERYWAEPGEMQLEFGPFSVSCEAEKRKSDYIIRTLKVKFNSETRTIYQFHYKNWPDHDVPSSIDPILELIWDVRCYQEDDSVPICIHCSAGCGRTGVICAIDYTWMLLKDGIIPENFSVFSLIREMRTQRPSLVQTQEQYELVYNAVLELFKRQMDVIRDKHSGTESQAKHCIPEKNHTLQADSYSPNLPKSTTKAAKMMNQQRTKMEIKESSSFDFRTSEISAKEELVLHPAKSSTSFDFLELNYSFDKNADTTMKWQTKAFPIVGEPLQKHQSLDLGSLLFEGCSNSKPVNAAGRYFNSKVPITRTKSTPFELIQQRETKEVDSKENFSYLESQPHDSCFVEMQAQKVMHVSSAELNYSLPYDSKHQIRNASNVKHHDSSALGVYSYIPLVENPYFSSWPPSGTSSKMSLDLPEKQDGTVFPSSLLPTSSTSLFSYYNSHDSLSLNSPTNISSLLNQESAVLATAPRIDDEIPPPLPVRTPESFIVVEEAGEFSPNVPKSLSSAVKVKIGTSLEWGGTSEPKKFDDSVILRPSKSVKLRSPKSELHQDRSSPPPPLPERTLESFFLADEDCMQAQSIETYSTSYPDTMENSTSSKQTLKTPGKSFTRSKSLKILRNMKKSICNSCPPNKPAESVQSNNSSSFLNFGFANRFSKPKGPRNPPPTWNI

[4] = molecular target: T1, Tyrosine-protein phosphatase non-receptor type 22; assay: inhibition of lymphoid tyrosine phosphatase LYP – biochemical, pCAP fluorogenic substrate, fluorescence, set 3, SAR follow-up (AID 449727); type: functional
[5] = molecular target: Protein Rev (Human immunodeficiency virus type 1 group M subtype B (isolate HXB2)(HIV-1), UniProt P04618); assay: blockers of HIV Rev/RRE RNA complex – biochemical, fluorescence polarization, HIV-1, dose response (AID 434976); design: species or system Human immunodeficiency virus 1
Protein Rev, sequence (P04618 whole entry): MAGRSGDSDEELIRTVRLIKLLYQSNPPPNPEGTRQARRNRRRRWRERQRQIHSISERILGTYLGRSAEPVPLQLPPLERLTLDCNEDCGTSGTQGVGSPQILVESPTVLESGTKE

[6] = molecular target: Female germline-specific tumor suppressor gld-1 (Caenorhabditis elegans, UniProt Q17339); assay: blockers of GLD-1/TGE RNA complex formation – biochemical, fluorescence polarization, C. elegans, dose response (AID 2802);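 note: fluorescence polarization of labeled TGE RNA bound by purified gld-1 protein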
Female germline-specific tumor suppressor gld-1, sequence (Q17339 whole entry): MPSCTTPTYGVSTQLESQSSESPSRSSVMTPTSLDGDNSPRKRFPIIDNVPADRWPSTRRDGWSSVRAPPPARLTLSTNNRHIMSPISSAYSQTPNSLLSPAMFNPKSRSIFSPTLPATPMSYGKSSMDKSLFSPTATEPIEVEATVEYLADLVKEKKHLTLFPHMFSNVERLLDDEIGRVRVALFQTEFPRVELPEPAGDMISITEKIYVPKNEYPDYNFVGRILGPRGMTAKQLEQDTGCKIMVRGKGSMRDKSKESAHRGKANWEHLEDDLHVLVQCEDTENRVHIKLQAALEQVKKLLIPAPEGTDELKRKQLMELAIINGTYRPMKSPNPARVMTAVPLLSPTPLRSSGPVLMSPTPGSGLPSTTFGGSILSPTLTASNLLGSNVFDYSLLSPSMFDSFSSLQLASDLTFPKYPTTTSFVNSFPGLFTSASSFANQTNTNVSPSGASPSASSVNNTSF

[7] = molecular target: T2, Insulin-degrading enzyme (Homo sapiens, UniProt P14735); assay: recombinant IDE activation, cell-free – biochemical, fluorescence polarization, counter-screen for IDE activator project, dose response (AID 588681)
T2 sequence (P14735 whole entry): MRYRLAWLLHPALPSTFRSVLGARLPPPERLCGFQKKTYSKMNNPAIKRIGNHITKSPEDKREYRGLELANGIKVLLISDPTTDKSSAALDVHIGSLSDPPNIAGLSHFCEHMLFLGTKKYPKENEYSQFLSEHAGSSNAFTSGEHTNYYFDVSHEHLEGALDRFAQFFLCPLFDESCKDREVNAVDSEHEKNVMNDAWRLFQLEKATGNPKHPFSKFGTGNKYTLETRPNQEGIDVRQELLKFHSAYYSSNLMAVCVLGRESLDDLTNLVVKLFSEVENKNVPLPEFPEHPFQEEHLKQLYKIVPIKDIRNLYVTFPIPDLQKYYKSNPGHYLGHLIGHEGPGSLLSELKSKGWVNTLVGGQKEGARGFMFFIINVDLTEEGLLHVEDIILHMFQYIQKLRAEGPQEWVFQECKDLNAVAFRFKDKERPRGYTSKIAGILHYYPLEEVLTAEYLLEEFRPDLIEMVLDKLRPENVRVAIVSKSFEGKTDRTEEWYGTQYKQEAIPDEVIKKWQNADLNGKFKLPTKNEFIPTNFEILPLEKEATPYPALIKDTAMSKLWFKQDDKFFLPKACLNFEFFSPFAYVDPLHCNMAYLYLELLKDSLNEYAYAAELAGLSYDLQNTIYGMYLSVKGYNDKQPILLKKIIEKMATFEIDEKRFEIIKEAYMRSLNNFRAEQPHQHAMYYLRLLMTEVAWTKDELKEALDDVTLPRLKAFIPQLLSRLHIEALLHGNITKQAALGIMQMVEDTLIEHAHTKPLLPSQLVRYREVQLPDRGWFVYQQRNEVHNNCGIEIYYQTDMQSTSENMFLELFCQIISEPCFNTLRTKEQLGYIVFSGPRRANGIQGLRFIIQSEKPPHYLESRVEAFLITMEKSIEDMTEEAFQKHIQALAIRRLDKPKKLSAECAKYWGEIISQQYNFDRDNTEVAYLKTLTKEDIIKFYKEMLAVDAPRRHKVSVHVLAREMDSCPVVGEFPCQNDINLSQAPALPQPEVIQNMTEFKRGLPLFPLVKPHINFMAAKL

[8] = molecular target: T2, Insulin-degrading enzyme; assay: cellular IDE activation of Abeta substrate cleavage – fluorescence polarization, HEK cells, dose response (AID 588439); type: functional, cell-based
[9] = system: HEK293; assay: membrane integrity loss in HEK cells – cell-based, fluorescence, cytotoxicity control for IDE activator project, dose response (AID 588440); type: functional; conditions: Homo sapiens;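 note: cytotoxicity by LDH release measuring loss of membrane integrity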
[10] = system: HEK293; assay: optical interference in Abeta FP readout, dose response, artefact control for IDE activator project, biochemical, fluorescence polarization (AID 588442); type: functional, cell-based; conditions: Homo sapiens
[11] = viability of uninfected HEp-2 cells – cell-based, HTS, cytotoxicity control for RSV inhibitor project, dose response (AID 2410); type: functional; conditions: human respiratory syncytial virus
[12] = molecular target: Trypsin (Sus scrofa, UniProt P00761); assay: trypsin protease activity blockade – biochemical, quenched peptide fluorescence, cherry-pick, selectivity assay for Rce1 protease inhibitor project, dose response (AID 488789)
Trypsin, sequence (P00761 whole entry): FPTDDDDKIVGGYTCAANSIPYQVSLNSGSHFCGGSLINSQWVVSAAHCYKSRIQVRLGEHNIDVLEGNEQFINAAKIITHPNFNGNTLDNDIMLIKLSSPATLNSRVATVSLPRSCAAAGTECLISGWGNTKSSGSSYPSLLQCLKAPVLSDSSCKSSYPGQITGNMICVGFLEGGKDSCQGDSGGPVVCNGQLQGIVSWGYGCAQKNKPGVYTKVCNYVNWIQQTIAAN

[13] = cells; type: functional, cell-based
[14] = molecular target: T3, Trace amine-associated receptor 1 (Homo sapiens, UniProt Q96RJ0); assay: Fluorescence-based cell-based high throughput dose response assay to identify agonists of the human trace amine associated receptor 1 (TAAR1).; type: functional
T3 sequence (Q96RJ0 whole entry): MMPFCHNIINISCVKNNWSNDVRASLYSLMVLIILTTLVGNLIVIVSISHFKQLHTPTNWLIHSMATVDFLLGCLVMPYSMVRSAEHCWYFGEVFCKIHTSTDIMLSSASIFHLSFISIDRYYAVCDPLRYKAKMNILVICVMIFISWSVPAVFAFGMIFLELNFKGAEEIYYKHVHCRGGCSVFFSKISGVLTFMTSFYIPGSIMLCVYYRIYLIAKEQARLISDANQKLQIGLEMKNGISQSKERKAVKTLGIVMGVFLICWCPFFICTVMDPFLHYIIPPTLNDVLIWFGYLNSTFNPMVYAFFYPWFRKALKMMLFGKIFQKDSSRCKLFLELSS

[15] = molecular target: T3, Trace amine-associated receptor 1; assay: Counterscreen for agonists of the human trace amine associated receptor 1 (hTAAR1): Fluorescence-based cell-based high throughput dose response assay to identify hTAAR1 agonist that also desensitize TAAR1 receptor response.; type: functional
[16] = cells; type: functional, cell-based; remark: listed apart in the source
[17] = molecular target: Melanin-concentrating hormone receptor 1 (Homo sapiens, UniProt Q99705); assay: Late-stage fluorescence-based counterscreen for antagonists of the G-protein coupled receptor 7 (GPR7): cell-based dose response assay to identify antagonists of the melanin-concentrating hormone receptor 1 (MCHR1). [Related pubchem assays (depositor defined):AID1861, AID1880, AID1952, AID2148, AID2251, AID2257, AID485339]; type: functional;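 note: stimulated with 30 nM MCH peptide agonist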
Melanin-concentrating hormone receptor 1, sequence (Q99705 whole entry): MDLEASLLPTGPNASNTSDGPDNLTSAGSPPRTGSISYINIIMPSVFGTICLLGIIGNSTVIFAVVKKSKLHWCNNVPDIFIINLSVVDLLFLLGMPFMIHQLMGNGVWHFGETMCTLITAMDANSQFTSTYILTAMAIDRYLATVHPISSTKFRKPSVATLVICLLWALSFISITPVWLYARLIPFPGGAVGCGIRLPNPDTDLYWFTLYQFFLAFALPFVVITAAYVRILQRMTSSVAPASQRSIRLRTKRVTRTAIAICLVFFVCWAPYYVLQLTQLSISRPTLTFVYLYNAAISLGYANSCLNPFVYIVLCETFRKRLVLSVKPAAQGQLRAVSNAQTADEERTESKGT

[18] = molecular target: T4, Neuropeptides B/W receptor type 1 (Homo sapiens, UniProt P48145); assay: human NPBW1 receptor blockade, IC50 – cell-based, fluorescence, dose response, late-stage follow-up (AID 463251); type: functional
T4 sequence (P48145 whole entry): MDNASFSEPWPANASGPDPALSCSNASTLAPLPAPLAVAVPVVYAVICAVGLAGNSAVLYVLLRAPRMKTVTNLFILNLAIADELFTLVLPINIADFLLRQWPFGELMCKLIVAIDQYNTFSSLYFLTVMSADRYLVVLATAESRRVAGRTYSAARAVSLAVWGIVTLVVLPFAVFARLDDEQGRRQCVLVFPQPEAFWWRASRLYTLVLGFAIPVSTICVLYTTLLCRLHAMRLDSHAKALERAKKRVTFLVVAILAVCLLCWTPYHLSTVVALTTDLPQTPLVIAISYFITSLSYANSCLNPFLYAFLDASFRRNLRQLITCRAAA

Glyceraldehyde-3-phosphate dehydrogenase, sequence (P04406 whole entry): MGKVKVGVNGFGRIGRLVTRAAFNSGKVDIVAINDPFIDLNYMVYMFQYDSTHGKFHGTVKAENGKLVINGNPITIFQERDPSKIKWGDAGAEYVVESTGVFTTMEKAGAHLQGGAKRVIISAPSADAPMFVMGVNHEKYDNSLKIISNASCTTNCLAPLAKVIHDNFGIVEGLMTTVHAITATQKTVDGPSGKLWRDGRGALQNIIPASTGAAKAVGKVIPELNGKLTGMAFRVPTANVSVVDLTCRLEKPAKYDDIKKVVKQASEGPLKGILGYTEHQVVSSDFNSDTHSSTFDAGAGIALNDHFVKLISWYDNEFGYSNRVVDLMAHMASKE

IC50 [1]: > 100 µM (not active)
IC50 [2]: > 100 µM (inactive)
IC50 [3]: > 100 µM (inactive)
IC50 [4]: > 100 µM (inactive)
Compound: COc1ccc(/C=C2\SC(=S)N(C(CC(=O)O)C(=O)O)C2=O)cc1 (stereo not drawn)

Compound: O=C(O)c1ccccc1N=Nc1ccc(O)cc1
IC50 [5]: 22 µM (not active)
IC50 [6]: 8.4 µM (active)
EC50 [7]: 26.9 µM (inactive)
EC50 [8]: 22.3 µM (inactive)
IC50 [9]: > 89.2 µM (inactive)
EC50 [10]: 50.3 µM (inactive)

Compound: O=C(NCC1CC1)c1ccc(Nc2nc3cc(Br)ccc3[nH]2)cc1
CC50 [11]: 7.81 µM (active)
AC50 [12]: 9.83 µM (active)
IC50 [13]: 14.5 µM (inactive)
EC50 [14]: 14.6 µM (inactive)
IC50 [15]: 2.09 µM (active)
EC50 [16]: > 29.9 µM (inactive)

IC50 [17]: 5.8 µM (active)
IC50 [18]: 9 µM (active)
Compound: Cc1ccc(CN2CCCCC2C(=O)N2CCN(c3ccc([N+](=O)[O-])cc3)CC2)cc1 (stereo not drawn)

From ChEMBL document CHEMBL1201862, “PubChem BioAssay data set” (2004)
